# System: FtsZ filaments
# Experiment: Slope of linear regression FtsZ vs FtsA intensity (packing of FtsA below FtsZ filaments)
# Type: biochemical, E. coli
# Details: for Slope of linear regression: Fig. S2h
# Source text: While fluorescence microscopy cannot resolve molecular assemblies of these small dimensions, a higher packing density of FtsA R286W below FtsZ filaments could explain the enhanced colocalization with FtsZ. To test this hypothesis, we analysed the pixel-by-pixel relationship between the fluorescence intensities of FtsZ and FtsA in dual-colour fluorescence time-lapse movies. […] At low FtsA concentrations, we found the slopes for both proteins to be similar.
molecule,measurement,setting,value
"FtsA WT: wild-type E. coli actin-homologue FtsA, membrane anchor of FtsZ",Slope of linear regression FtsZ vs FtsA,"0.1 µM FtsA, mean",0.64
same,"Slope of linear regression, mean of single experiment","0.1µM, replicate column 1",0.68
same,"Slope of linear regression, mean of single experiment","0.1µM, replicate column 2",0.37
same,"Slope of linear regression, mean of single experiment","0.1µM, replicate column 3",0.74
same,"Slope of linear regression, mean of single experiment","0.1µM, replicate column 4",0.70
same,Slope of linear regression FtsZ vs FtsA,"0.2 µM FtsA, mean",0.45
same,"Slope of linear regression, mean of single experiment","0.2µM, replicate column 1",0.40
same,"Slope of linear regression, mean of single experiment","0.2µM, replicate column 2",0.56
same,"Slope of linear regression, mean of single experiment","0.2µM, replicate column 3",0.40
same,"Slope of linear regression, mean of single experiment","0.4µM, replicate column 1",0.0747
same,"Slope of linear regression, mean of single experiment","0.4µM, replicate column 2",0.0547
same,"Slope of linear regression, mean of single experiment","0.4µM, replicate column 3",0.49
same,"Slope of linear regression, mean of single experiment","0.4µM, replicate column 4",0.31
same,Slope of linear regression FtsZ vs FtsA,"0.8 µM FtsA, mean",0.17
same,"Slope of linear regression, mean of single experiment","0.8µM, replicate column 1",0.16
same,"Slope of linear regression, mean of single experiment","0.8µM, replicate column 2",0.15
same,"Slope of linear regression, mean of single experiment","0.8µM, replicate column 3",0.23
same,"Slope of linear regression, mean of single experiment","0.8µM, replicate column 4",0.13
same,Slope of linear regression,"+ FtsN, 0.10 µM, mean",0.81 a.u.
same,Slope of linear regression,"+ FtsN, 0.10 µM, replicate 1",0.84 a.u.
same,Slope of linear regression,"+ FtsN, 0.10 µM, replicate 2",0.82 a.u.
same,Slope of linear regression,"+ FtsN, 0.10 µM, replicate 3",0.78 a.u.
same,Slope of linear regression,"+ FtsN, 0.20 µM, mean",0.65 a.u.
same,Slope of linear regression,"+ FtsN, 0.20 µM, replicate 1",0.62 a.u.
same,Slope of linear regression,"+ FtsN, 0.20 µM, replicate 2",0.61 a.u.
same,Slope of linear regression,"+ FtsN, 0.20 µM, replicate 3",0.72 a.u.
same,Slope of linear regression,"+ FtsN, 0.40 µM, mean",0.35 a.u.
same,Slope of linear regression,"+ FtsN, 0.40 µM, replicate 1",0.43 a.u.
same,Slope of linear regression,"+ FtsN, 0.40 µM, replicate 2",0.47 a.u.
same,Slope of linear regression,"+ FtsN, 0.40 µM, replicate 3",0.13 a.u.
same,Slope of linear regression,"without FtsN, 0.10 µM, mean",0.70 a.u.
same,Slope of linear regression,"without FtsN, 0.10 µM, replicate 1",0.52 a.u.
same,Slope of linear regression,"without FtsN, 0.10 µM, replicate 2",0.85 a.u.
same,Slope of linear regression,"without FtsN, 0.10 µM, replicate 3",0.71 a.u.
same,Slope of linear regression,"without FtsN, 0.20 µM, mean",0.59 a.u.
same,Slope of linear regression,"without FtsN, 0.20 µM, replicate 1",0.55 a.u.
same,Slope of linear regression,"without FtsN, 0.20 µM, replicate 2",0.56 a.u.
same,Slope of linear regression,"without FtsN, 0.20 µM, replicate 3",0.66 a.u.
same,Slope of linear regression,"without FtsN, 0.40 µM, mean",0.16 a.u.
same,Slope of linear regression,"without FtsN, 0.40 µM, replicate 1",0.24 a.u.
same,Slope of linear regression,"without FtsN, 0.40 µM, replicate 2",0.066 a.u.
same,Slope of linear regression,"without FtsN, 0.40 µM, replicate 3",0.18 a.u.
"FtsA R286W (protein, Cy3 or Cy5 at the N-terminus in the labelled form (labelled CLEPTGG peptide conjugated to the 5xGly tag by sortagging); unlabelled protein also used; left off: TwinStrep-SUMO, N-terminal, cleaved | 5x) MIKATDRKLVVGLEIGTAKVAALVGEVLPDGMVNIIGVGSCPSRGMDKGGVNDLESVVKCVQRAIDQAELMADCQISSVYLALSGKHISCQNEIGMVPISEEEVTQEDVENVVHTAKSVRVRDEHRVLHVIPQEYAIDYQEGIKNPVGLSGVRMQAKVHLITCHNDMAKNIVKAVERCGLKVDQLIFAGLASSYSVLTEDERELGVCVVDIGGGTMDIAVYTGGALRHTKVIPYAGNVVTSDIAYAFGTPPSDAEAIKVRHGCALGSIVGKDESVEVPSVGGRPPWSLQRQTLAEVIEPRYTELLNLVNEEILQLQEKLRQQGVKHHLAAGIVLTGGAAQIEGLAACAQRVFHTQVRIGAPLNITGLTDYAQEPYYSTAVGLLHYGKESHLNGEAEVEKRVTASVGSWIKRLNSWLRKEF",Slope of linear regression FtsZ vs FtsA,"0.1 µM FtsA, mean",0.43
same,"Slope of linear regression, mean of single experiment","0.1µM, replicate column 1",0.46
same,"Slope of linear regression, mean of single experiment","0.1µM, replicate column 2",0.49
same,"Slope of linear regression, mean of single experiment","0.1µM, replicate column 3",0.39
same,Slope of linear regression FtsZ vs FtsA,"0.2 µM FtsA, mean",0.60
same,"Slope of linear regression, mean of single experiment","0.2µM, replicate column 1",0.53
same,"Slope of linear regression, mean of single experiment","0.2µM, replicate column 2",0.81
same,"Slope of linear regression, mean of single experiment","0.2µM, replicate column 3",0.58
same,"Slope of linear regression, mean of single experiment","0.4µM, replicate column 1",0.63
same,Slope of linear regression FtsZ vs FtsA,"0.8 µM FtsA, mean",0.72
same,Slope of linear regression FtsZ vs FtsA,"above 0.2 µM, remained constant",~ 0.7
